Test results published in US10561703B2, “Method of modulating sex hormone levels using a sex hormone secretion modulator” (GEMVAX & KAEL CO., LTD., priority 2013, dated 2020).

How the values were obtained:
[1] = test system: RWPE-1; test: Cell proliferation (CCK-8) in prostate epithelial cell line; format: cell-based
Description: (§1) When testosterone is injected into the body, testosterone becomes dihydrotestosterone (DHT) due to 5α-reductase, which stimulates the proliferation of prostate cells and induces benign prostatatic hyperplasia (BPH). Based on these facts, a PEP-1 (GV1001) injection experiment was performed for the inhibition of proliferation of prostatic cells in the following manner: The cell lines were mesenchymal cell lines (WPMY-1) and epithelial cell lines (RWPE-1) of prostates obtained from BPH animal models. […] Observation of changes in the proliferation was performed by suctioning a culture medium, adding 10 μL of CCK-8 solution to each well, and measuring an optical density at 450 nm for 1 hour to about 4 hours.

[2] = test system: WPMY-1; test: Cell proliferation (CCK-8) in prostate mesenchymal cell line; format: cell-based
Description: as §1

Sequence: EARPALLTSRLRFIPK (listed as Homo sapiens) [PEP-1, hormone secretion modulator / GnRH analog]
- Cell proliferation (optical density at 450 nm) versus untreated cells ([1]; RWPE-1, 100 and 200 μM GV1001, no DHT): did not show a substantial difference in optical densities
- Inhibition of DHT-induced cell proliferation ([1]; RWPE-1, 100 and 200 μM GV1001 with 25 nM DHT): substantial inhibition effects on proliferation
- Cell proliferation (optical density at 450 nm) versus untreated cells ([2]; WPMY-1, 100 and 200 μM GV1001, no DHT): did not show a substantial difference in optical densities
- Inhibition of DHT-induced cell proliferation ([2]; WPMY-1, 100 and 200 μM GV1001 with 25 nM DHT): substantial inhibition effects on proliferation
